Measurements as given in ChEMBL document CHEMBL1201862, “PubChem BioAssay data set” (2004).
Several values for one entry are separate records, joined by “and”; a condition that tells them apart may be missing. Identical values can stand only once. Activity calls are given as the source filed them.

Columns and labels:
[1] = molecular target: Dual specificity tyrosine-phosphorylation-regulated kinase 1A (Rattus norvegicus, UniProt Q63470); type: biochemical, Homo sapiens
[2] = molecular target: T1, Microphthalmia-associated transcription factor (Homo sapiens, UniProt O75030); assay: TRPM1 promoter luciferase signal decrease, dose response, MITF inhibitor project, cell-based, SK-MEL-5, cherry-picked, set 3 (AID 493073); type: functional
T1 sequence (O75030 whole entry): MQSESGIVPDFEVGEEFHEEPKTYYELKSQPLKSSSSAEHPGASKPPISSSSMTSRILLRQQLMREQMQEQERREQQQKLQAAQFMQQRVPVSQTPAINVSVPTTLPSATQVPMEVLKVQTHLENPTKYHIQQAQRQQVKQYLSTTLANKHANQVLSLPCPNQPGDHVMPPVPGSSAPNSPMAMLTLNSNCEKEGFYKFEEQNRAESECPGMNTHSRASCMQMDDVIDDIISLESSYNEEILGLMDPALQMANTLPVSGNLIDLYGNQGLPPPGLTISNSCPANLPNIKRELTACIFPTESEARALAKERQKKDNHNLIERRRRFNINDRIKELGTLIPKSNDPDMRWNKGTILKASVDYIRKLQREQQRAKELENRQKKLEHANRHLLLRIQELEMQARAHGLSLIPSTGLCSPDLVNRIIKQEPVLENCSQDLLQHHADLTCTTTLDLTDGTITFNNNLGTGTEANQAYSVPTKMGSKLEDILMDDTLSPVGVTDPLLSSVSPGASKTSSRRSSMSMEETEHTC

[3] = molecular target: T2, Nucleotide-binding oligomerization domain-containing protein 1 (Homo sapiens, UniProt Q9Y239); assay: NOD1 signaling inhibitors, SAR follow-up, revised (AID 2333); type: functional
T2 sequence (Q9Y239 whole entry): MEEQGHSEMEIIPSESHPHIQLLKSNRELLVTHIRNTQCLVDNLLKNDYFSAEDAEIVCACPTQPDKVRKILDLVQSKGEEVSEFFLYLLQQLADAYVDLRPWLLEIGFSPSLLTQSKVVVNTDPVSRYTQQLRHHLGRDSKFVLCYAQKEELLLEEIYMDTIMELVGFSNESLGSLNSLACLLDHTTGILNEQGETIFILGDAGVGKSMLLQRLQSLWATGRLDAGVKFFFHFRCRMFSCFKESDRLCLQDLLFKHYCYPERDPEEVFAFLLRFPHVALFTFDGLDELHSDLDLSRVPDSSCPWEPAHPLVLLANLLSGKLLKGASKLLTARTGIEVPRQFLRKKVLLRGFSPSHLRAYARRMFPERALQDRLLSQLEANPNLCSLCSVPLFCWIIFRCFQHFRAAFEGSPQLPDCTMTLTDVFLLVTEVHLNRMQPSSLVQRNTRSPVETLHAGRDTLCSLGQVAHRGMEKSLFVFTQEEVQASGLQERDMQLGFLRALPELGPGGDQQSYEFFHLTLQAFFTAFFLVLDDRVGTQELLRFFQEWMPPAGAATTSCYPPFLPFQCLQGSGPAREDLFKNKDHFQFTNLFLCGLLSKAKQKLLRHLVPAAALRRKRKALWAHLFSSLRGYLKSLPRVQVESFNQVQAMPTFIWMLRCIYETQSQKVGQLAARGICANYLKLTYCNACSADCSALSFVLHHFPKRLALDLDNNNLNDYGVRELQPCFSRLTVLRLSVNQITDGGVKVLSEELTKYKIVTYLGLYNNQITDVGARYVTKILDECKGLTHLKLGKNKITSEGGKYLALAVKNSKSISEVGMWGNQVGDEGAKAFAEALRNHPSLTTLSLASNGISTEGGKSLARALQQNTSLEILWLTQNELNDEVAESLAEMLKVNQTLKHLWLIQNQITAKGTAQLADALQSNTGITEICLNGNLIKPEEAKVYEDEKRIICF

Tumor necrosis factor = Tumor necrosis factor (Homo sapiens, UniProt P01375); assay: TNFa-triggered NF-kB activation inhibitors, SAR follow-up, cell-based, revised (AID 2337); type: functional
Sequence of Tumor necrosis factor (P01375 whole entry): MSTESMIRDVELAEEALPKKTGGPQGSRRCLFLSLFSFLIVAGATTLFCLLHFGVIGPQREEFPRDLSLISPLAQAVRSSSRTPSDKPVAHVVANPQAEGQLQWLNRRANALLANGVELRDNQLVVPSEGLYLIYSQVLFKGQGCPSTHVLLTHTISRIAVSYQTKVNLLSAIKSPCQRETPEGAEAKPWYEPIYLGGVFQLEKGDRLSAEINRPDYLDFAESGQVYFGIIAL

HEK293 [4] = assay: cells; settings: Homo sapiens
HEK293 [5] = assay: NOD2 signaling inhibitors in MDP-stimulated cells, cell-based, uHTS, luminescence (AID 2001); type: functional; settings: Homo sapiens
HEK293 [6] = assay: NOD1 signaling inhibitors, primary screen, cell-based, luminescence, uHTS (AID 1578); type: functional; settings: Homo sapiens
HEK293 [7] = assay: cells; type: functional, cell-based; settings: Homo sapiens
HEK293 [8] = assay: cells; type: functional, cell-based; settings: Homo sapiens; remark: listed apart in the source
Beta-galactosidase = Beta-galactosidase (Escherichia coli, UniProt Q8VNN2); assay: PubChem AID 485352; type: functional
Sequence of Beta-galactosidase (Q8VNN2 whole entry): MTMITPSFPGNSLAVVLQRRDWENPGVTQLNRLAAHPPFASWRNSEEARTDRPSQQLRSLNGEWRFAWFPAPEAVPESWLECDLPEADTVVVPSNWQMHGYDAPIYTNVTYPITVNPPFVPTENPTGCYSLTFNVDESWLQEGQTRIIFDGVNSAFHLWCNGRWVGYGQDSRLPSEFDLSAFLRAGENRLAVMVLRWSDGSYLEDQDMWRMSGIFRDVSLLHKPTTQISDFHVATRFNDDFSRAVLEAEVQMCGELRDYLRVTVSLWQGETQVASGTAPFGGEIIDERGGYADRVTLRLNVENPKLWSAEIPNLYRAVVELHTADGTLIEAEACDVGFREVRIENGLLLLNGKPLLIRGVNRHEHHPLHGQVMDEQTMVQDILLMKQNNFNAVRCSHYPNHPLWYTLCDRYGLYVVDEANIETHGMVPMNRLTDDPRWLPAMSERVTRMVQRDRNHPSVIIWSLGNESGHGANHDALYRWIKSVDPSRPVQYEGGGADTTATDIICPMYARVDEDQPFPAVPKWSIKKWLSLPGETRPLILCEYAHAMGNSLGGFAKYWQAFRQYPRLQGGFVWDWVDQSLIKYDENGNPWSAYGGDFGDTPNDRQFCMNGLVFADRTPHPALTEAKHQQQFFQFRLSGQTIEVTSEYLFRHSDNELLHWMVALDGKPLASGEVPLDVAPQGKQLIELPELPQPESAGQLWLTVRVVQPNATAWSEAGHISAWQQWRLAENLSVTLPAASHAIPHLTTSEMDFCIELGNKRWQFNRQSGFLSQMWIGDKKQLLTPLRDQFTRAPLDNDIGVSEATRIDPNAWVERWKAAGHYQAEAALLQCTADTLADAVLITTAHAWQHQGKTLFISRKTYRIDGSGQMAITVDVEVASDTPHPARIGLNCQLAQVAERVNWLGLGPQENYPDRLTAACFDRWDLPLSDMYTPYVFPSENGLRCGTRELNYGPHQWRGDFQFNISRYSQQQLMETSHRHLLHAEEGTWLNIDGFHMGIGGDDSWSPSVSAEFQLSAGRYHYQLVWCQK

[9] = molecular target: T3, Type-1 angiotensin II receptor (Homo sapiens, UniProt P30556); assay: AT1 receptor antagonists, dose response, selectivity assay for APJ receptor antagonist project, cell-based, uHTS hits (AID 463214); type: functional;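 note: antagonist potency against angiotensin II stimulated AT1 response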
T3 sequence (P30556 whole entry): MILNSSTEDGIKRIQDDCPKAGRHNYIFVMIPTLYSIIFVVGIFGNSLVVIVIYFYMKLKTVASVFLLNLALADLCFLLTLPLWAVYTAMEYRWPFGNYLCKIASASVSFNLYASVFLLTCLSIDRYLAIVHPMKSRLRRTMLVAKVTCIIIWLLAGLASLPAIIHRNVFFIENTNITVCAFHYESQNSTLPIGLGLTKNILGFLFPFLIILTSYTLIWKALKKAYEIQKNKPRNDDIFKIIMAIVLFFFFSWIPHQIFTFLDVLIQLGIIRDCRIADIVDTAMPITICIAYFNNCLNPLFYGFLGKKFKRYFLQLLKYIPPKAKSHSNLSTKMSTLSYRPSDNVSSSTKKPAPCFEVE

Nonstructural protein 1 = Nonstructural protein 1 (Influenza A virus, UniProt Q194T2); type: functional, Influenza A virus (A/California/07/2009(H1N1))
Sequence of Nonstructural protein 1 (Q194T2 whole entry): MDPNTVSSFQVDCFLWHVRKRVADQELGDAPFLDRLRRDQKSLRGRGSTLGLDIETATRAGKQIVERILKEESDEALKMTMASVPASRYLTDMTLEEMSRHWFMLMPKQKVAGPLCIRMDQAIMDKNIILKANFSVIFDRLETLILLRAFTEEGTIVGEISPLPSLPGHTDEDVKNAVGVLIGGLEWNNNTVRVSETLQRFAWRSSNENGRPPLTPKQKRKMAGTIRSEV

Streptococcus = assay: Group A Streptococcus viability loss, dose response, counter-screen for streptokinase expression inhibitor project, luminescence, BacTiterGlo (AID 1915); type: functional, organism-based;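 note: potency for reduction of bacterial viability or growth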
Streptokinase A = molecular target: T4, Streptokinase A (Streptococcus pyogenes serotype M1, UniProt P10520); assay: S. pyogenes streptokinase expression inhibitors, potency, dose response, plasminogen activation absorbance, OD405 (AID 1914); type: functional, Streptococcus pyogenes M1 GAS;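 note: secreted streptokinase activity via plasminogen activation per viability signal from cell pellet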
T4 sequence (P10520 whole entry): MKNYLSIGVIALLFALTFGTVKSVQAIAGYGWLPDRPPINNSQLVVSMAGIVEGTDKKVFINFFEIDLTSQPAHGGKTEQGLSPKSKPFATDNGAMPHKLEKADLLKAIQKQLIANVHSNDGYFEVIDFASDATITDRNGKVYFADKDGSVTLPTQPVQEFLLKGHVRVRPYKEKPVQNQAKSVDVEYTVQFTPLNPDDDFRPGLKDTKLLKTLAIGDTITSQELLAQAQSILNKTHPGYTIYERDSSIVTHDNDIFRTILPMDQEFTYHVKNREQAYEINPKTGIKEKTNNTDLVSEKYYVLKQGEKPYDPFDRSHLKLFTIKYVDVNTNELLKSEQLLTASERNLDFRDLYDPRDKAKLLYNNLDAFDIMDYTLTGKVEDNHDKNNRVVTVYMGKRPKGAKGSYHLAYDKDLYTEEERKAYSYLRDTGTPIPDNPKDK

[10] = system: Streptococcus sp. 'group A'; assay: growth inhibition of control SK(-) GAS strain, dose response, counter-screen for streptokinase expression inhibitor project, luminescence, kanamycin, BacTiterGlo, confirmation (AID 1900); type: functional, organism-based
Protein skinhead-1 = molecular target: T5, Protein skinhead-1 (Caenorhabditis elegans, UniProt P34707); type: functional
T5 sequence (P34707 whole entry): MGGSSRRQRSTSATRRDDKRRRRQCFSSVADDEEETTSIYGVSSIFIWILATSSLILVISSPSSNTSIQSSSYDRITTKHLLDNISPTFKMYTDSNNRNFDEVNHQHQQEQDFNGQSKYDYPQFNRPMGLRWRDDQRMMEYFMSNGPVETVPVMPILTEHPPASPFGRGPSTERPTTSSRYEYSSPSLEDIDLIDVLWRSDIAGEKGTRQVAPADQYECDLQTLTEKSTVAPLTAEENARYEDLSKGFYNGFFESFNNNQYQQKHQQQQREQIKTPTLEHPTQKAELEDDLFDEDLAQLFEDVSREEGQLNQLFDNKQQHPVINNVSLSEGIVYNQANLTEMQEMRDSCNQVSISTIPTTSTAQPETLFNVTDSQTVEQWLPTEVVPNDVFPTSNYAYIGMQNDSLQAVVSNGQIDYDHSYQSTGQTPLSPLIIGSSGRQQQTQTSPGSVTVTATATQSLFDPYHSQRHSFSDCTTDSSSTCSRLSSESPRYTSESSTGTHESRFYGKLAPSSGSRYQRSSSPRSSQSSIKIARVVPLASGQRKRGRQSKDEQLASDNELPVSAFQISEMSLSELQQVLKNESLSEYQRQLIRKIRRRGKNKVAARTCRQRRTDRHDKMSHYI

cells = type: functional
[11] = Vero E6 cell cytotoxicity, dose response, cytotoxicity control for non-replicating M. tuberculosis project, secondary assay (AID 492998); type: functional, VeroE6; settings: Vero C1008
[12] = THP-1 cell cytotoxicity, dose response, cytotoxicity control for non-replicating M. tuberculosis project (AID 489025); type: functional
Cytochrome P450 3A4 [13] = molecular target: T6, Cytochrome P450 3A4 (Homo sapiens, UniProt P08684); settings: Potency
T6 sequence (P08684 whole entry): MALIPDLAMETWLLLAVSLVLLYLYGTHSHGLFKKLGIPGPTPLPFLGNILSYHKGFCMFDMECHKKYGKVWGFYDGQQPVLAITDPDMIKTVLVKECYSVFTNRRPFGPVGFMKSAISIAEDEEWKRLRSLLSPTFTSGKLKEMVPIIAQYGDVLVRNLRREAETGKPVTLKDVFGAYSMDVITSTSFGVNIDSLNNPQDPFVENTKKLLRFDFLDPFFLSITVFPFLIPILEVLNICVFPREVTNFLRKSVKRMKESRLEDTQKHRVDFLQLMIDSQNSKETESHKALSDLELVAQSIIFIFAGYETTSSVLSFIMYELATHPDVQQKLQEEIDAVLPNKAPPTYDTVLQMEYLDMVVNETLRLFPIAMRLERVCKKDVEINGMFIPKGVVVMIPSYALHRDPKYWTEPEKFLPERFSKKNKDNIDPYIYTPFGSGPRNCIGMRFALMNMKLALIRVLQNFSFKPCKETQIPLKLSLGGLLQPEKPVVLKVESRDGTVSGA

[14] = molecular target: T7, Alkaline phosphatase, tissue-nonspecific isozyme (Homo sapiens, UniProt P05186); assay: TNAP enzyme inhibition by screening hits, dose response, selectivity assay for mouse IAP inhibitor project, biochemical, human TNAP, uHTS hits (AID 488906); type: functional
T7 sequence (P05186 whole entry): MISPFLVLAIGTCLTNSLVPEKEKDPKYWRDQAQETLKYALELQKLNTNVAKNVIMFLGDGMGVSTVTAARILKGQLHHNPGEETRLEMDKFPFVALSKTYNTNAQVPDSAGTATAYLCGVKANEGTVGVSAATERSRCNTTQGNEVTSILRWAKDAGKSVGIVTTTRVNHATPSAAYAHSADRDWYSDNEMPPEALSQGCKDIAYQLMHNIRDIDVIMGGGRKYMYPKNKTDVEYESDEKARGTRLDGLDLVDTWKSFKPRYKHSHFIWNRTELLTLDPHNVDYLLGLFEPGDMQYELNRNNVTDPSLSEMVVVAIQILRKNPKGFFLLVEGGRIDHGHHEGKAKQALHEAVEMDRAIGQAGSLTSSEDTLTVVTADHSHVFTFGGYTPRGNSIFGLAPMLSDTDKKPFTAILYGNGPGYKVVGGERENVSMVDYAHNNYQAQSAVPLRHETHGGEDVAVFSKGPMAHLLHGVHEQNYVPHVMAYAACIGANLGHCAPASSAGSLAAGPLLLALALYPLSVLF

Cytochrome P450 2C19 = Cytochrome P450 2C19 (Homo sapiens, UniProt P33261); assay: Cytochrome panel assay with activity outcomes. Panel member name: p450-cyp2c19 Compounds with AC50 equal or less than 10 uM are considered active; type: functional; settings: read-out: AC50
Sequence of Cytochrome P450 2C19 (P33261 whole entry): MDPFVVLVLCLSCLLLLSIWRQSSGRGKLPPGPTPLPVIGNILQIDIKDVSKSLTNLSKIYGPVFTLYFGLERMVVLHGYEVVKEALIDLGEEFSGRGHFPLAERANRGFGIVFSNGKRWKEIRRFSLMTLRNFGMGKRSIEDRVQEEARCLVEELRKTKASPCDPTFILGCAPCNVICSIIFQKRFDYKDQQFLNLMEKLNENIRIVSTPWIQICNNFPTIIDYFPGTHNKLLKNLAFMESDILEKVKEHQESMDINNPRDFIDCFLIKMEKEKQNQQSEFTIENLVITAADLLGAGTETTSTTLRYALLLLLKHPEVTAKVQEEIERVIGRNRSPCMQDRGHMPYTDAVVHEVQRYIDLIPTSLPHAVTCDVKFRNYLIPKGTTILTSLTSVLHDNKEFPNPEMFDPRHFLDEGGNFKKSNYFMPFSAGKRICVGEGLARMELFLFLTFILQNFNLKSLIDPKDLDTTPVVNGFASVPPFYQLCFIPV

Cytochrome P450 3A4 [15] = molecular target: T6, Cytochrome P450 3A4
[16] = molecular target: Intestinal-type alkaline phosphatase (Mus musculus, UniProt P24822); assay: PubChem AID 488785; type: functional
Sequence of Intestinal-type alkaline phosphatase (P24822 whole entry): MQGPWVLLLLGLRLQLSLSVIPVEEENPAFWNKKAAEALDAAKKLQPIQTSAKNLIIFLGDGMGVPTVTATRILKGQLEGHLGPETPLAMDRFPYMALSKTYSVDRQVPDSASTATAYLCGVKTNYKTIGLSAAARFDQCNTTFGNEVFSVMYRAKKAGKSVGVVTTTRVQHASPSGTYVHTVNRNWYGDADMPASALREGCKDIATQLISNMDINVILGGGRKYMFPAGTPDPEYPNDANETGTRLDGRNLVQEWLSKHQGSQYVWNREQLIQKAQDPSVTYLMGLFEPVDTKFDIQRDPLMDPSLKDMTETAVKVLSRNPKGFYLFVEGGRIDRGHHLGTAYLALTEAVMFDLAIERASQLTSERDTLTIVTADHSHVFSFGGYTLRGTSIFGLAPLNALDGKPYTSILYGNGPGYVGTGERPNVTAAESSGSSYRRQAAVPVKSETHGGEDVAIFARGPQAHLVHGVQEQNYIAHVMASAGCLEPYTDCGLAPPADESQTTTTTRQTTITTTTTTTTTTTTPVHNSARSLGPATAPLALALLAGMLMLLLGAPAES

[17] = molecular target: DNA dC->dU-editing enzyme APOBEC-3G (Homo sapiens, UniProt Q9HC16); assay: Dose Response confirmation of small molecule APOBEC3G DNA Deaminase Inhibitors via a fluorescence-based single-stranded DNA deaminase assay. [Related pubchem assays (depositor defined):AID493012, AID493028]; type: functional
Sequence of DNA dC->dU-editing enzyme APOBEC-3G (Q9HC16 whole entry): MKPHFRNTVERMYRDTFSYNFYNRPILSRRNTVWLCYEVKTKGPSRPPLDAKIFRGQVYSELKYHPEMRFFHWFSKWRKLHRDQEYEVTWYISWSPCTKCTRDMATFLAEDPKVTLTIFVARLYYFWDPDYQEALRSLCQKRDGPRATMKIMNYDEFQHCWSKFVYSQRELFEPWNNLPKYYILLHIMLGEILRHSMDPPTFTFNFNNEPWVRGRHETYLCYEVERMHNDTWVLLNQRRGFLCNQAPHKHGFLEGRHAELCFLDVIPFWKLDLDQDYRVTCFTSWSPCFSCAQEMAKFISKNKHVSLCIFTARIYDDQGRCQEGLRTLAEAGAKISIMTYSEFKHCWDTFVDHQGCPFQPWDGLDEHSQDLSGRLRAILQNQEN

Caspase-6 = molecular target: T8, Caspase-6 (Homo sapiens, UniProt P55212); assay: human caspase-6 inhibitors, dose response, biochemical, VEID-R110 fluorescence, cherry-pick (AID 720632)
T8 sequence (P55212 whole entry): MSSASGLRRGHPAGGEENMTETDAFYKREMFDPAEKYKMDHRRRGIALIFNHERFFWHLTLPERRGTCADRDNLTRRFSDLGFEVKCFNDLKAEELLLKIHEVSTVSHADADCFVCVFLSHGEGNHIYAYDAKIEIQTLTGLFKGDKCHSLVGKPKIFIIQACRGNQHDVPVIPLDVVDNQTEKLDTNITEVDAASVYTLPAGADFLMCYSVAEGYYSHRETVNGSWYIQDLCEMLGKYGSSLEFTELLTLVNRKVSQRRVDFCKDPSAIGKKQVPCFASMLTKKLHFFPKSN

## CCOC(=O)CSC1=NC(=O)/C(=C/c2ccc(OC)cc2)S1
[1]
  AC50: 395 nM (active)
[2]
  AC50: 3.98 µM (active)

## Cc1ccc(C(=O)N2CCN(c3ccc(F)cc3)CC2)cc1S(=O)(=O)N1CCCCC1
[3]
  IC50: 5.07 µM (active)
Tumor necrosis factor
  IC50: 9.82 µM (active)
HEK293 [4]
  IC50: > 20 µM (inactive)
HEK293 [5]
  IC50: 12.9 µM (inactive)
HEK293 [6]
  EC50: 5.48 µM (active)
HEK293 [7]
  IC50: > 20 µM (inactive)
HEK293 [8]
  IC50: 11.2 µM (active)

## CC1(C)CC2(CC(c3ccccc3F)c3cc(Cl)c(O)cc3O2)NC(=S)N1 (centres undefined)
Beta-galactosidase
  EC50: > 40 µM (inactive)
[9]
  IC50: > 40 µM (not active)

## CCSc1nnc(NC(=O)c2ccccn2)s1
Beta-galactosidase
  EC50: > 40 µM (inactive)
Nonstructural protein 1
  IC50: 10.6 µM (active)
Streptococcus
  EC50: 15.3 µM (active)
Streptokinase A
  EC50: > 150 µM (not active)
[10]
  EC50: 6.34 µM (active)
[9]
  IC50: 16.8 µM (active)

## O=C(Nc1nc(-c2cc(F)ccc2F)cs1)c1ccccn1
Protein skinhead-1
  IC50: > 100 µM (inactive)
cells
  IC50: 830 nM (active)
[11]
  CC50: > 20 µM (active)
[12]
  CC50: 29.4 µM (active)

## CC(=O)NC12CC3CC(C1)CC(C(=O)Nc1nc4ccc(F)cc4s1)(C3)C2
[1]
  AC50: 2640 nM (active)

## O=c1c(O)c(-c2cc(O)c(O)c(O)c2)oc2cc(O)cc(O)c12 [MYRICETIN]
Cytochrome P450 3A4 [13]
  AC50: 25.1 µM (inconclusive)
[14]
  IC50: 33.2 µM (active)
Cytochrome P450 2C19
  AC50: 3.98 µM (inconclusive) and 20 µM (inconclusive)
Cytochrome P450 3A4 [15]
  AC50: 3.98 µM (inconclusive)
[16]
  IC50: 12.5 µM (active)
[17]
  IC50: 2.39 µM (active)
Caspase-6
  AC50: 461 nM (active)
